The values that follow come from patent US20140235705A1, “FORMULATIONS OF THIOPHENE COMPOUNDS” (Vertex Pharmaceuticals Incorporated, priority 2011, published 2014).

Where a name gives a salt, the structure may show the parent alone.

The nature of this data set: Solubility (Cs) of Compound (1) solid forms in FESSIF. Format: physicochemical. The settings on record: FESSIF (fed state simulated intestinal fluid). From the text:
Simulated human intestinal media suitable for the invention can be found in the art, for example, those described in Jantratid, et al., “Dissolution Media Simulating Conditions in the Proximal Human Gastrointestinal Tract: An Update,” Pharmaceutical Research, 25(7), 2008. In one embodiment, a human fed state simulated intestinal fluid ([…]) is employed in the invention. A typical […] includes sodium hydroxide, citric acid, sodium chloride, sodium taurocholate, and lecithin (L-Alpha-Phosphatidyl Choline). A specific example is described in Example 9 below. […] [table]

`CC(C)(C)C#Cc1cc(N(C(=O)[C@H]2CC[C@H](C)CC2)[C@H]2CC[C@H](O)CC2)c(C(=O)O)s1` [Form A of Compound (1), 5-(3,3-Dimethyl-but-1-ynyl)-3-[(trans-4-hydroxy-cyclohexyl)-(trans-4-methyl-cyclohexanecarbonyl)-amino]-thiophene-2-carboxylic acid]: the “solubility of Compound (1) in FESSIF” value was 900 µg/mL.

As to `CC(C)(C)C#Cc1cc(N(C(=O)[C@H]2CC[C@H](C)CC2)[C@H]2CC[C@H](O)CC2)c(C(=O)O)s1` [Form M of Compound (1), 5-(3,3-Dimethyl-but-1-ynyl)-3-[(trans-4-hydroxy-cyclohexyl)-(trans-4-methyl-cyclohexanecarbonyl)-amino]-thiophene-2-carboxylic acid], the “solubility of Compound (1) in FESSIF” value is 825 µg/mL.

Regarding `CC(C)(C)C#Cc1cc(N(C(=O)[C@H]2CC[C@H](C)CC2)[C@H]2CC[C@H](O)CC2)c(C(=O)O)s1` [tromethamine salt of Compound (1), 5-(3,3-Dimethyl-but-1-ynyl)-3-[(trans-4-hydroxy-cyclohexyl)-(trans-4-methyl-cyclohexanecarbonyl)-amino]-thiophene-2-carboxylic acid], the “solubility of Compound (1) in FESSIF” value is 2600 µg/mL.
